Measurements published in patent US20080050354A1, “PROTECTING BIOACTIVE FOOD INGREDIENTS USING MICROORGANISMS HAVING REDUCED METABOLIZING CAPACITY” (COMPAGNIE GERVAIS DANONE, priority 2004, published 2008).
Entries after “also recorded” stand apart in the source; their conditions may differ. Read-outs that look alike come from different tables or passages of the source. Residues, ends and D or L forms follow the SMILES beside them.

Tests used:
[1] = cited from earlier work
[2] = test system: mouse peritoneal macrophages; conditions: in vitro; cited from earlier work
pathogenic strains [3] = conditions: in vitro; cited from earlier work
[4] = Storage of fermented product thermized at 75° C. for 1 minute; conditions: thermized 75° C., about 1 minute
Experimental: FIG. 5: Curves illustrating the change in the residual content of bioactive peptide αS1 [91-100], added after fermentation in a fermented product and then thermized at 75° C. for 1 minute, and stored at 10° C. up to the expiry date.
(FIG. 5), but at the expense of the overall quality of the finished product. Specifically, this solution has many drawbacks: • the thermization of a fermented dairy mass entails the use of stabilizers added before the heat treatment (pectins, starches, carrageenans, etc.), which complicates the process and substantially increases the cost of the formula; • the industrial manufacturing line is more complex and requires a larger specific investment; • the product no longer benefits from appellations associated with products containing live ferments (such as yogurt) and as a result loses the benefits associated with the consumption of lactic ferments; • the organoleptic impact (generally negative) is substantial.

Staphylococcus aureus [5] = conditions: sheep, IM injection; cited from earlier work
pathogenic strains [6] = conditions: in vitro; cited from earlier work; remark: listed apart in the source
Staphylococcus aureus [7] = conditions: Mice, IM injection; cited from earlier work
platelet aggregation = conditions: in vitro; cited from earlier work
small intestine motility = conditions: 10 g/300 ml water via intragastric probe; cancelled with naloxone; cited from earlier work

Compound: 191-193 casein: Bovine β-casein fragment 191-193 (LLY; UniProt P02666 206-208, looked up, fragment)
- in vivo protection [1]: No in vivo protection
- effect on mouse peritoneal macrophages [2]: Stimulation of mouse

Compound: Lactoferricin
- growth of pathogenic strains (pathogenic strains [3]): Inhibition of growth

Compound: peptide αS1 [91-100]: fragment 91-100 of casein αS1; peptide with relaxing properties contained in the milk protein hydrolyzate Lactium® (Ingredia) (YLGYLEQLLR; UniProt P02662 106-115, looked up, fragment)
- stability of the peptide after heat treatment of the fermented product [4]: possible to ensure the stability; also recorded: possible to preserve

Compound: CC[C@H](C)[C@H](NC(=O)[C@@H]1CCCN1C(=O)[C@H](Cc1cnc[nH]1)NC(=O)[C@H](CCCCN)NC(=O)[C@@H]1CCCN1C(=O)[C@@H](N)CCCNC(=N)N)C(=O)N[C@@H](CCCCN)C(=O)N[C@@H](Cc1cnc[nH]1)C(=O)N[C@@H](CCC(N)=O)C(=O)NCC(=O)N[C@@H](CC(C)C)C(=O)N1CCC[C@H]1C(=O)N[C@@H](CCC(N)=O)C(=O)N[C@@H](CCC(=O)O)C(=O)N[C@H](C(=O)N[C@@H](CC(C)C)C(=O)N[C@@H](CC(N)=O)C(=O)N[C@@H](CCC(=O)O)C(=O)N[C@@H](CC(N)=O)C(=O)N[C@@H](CC(C)C)C(=O)N[C@@H](CC(C)C)C(=O)N[C@@H](CCCNC(=N)N)C(=O)N[C@@H](Cc1ccccc1)C(=O)O)C(C)C [isracidin] (H-RPKHPIKHQGLPQEVLNENLLRF-OH)
- efficacy against Staphylococcus aureus (Staphylococcus aureus [5]): Mice, sheep: effective in IM
- growth of pathogenic strains (pathogenic strains [6]): Inhibition of growth
- efficacy against Staphylococcus aureus (Staphylococcus aureus [7]): Mice, sheep: effective in IM

Compound: Peptide 106-116 of bovine κ-casein: Peptide 106-116 of bovine κ-casein (MAIPPKKNQDK; UniProt P02668 127-137, looked up, fragment)
- platelet aggregation (platelet aggregation): Inhibition of

Compound: Casein
- small intestine motility (small intestine motility): intragastric probe: inhibition
